The values that follow come from paper PMC12102759 (Protein Science : A Publication of the Protein Society, 2025).

This test has as its system G3BP1 NFT2. It counts as binding, human. The settings on record: library DMS-CoV; bait G3BP1 NFT2; prey N; peptide APRITFGGPSDSTGSN; listed as aa = residue placed at this position; column sums to 1.
“APRITFGGPSDSTGSN D11P (APRITFGGPSPSTGSN)”: the “DMS PSSM value, D (position 11)” value turned out to be 0.007134.
Turning to APRITFGGPSDSTGSN G8M (APRITFGMPSDSTGSN), the “DMS PSSM value, G (position 8)” value came to 0.
On to APRITFGGPSDSTGSN I4Q (APRQTFGGPSDSTGSN), for which the “DMS PSSM value, I (position 4)” value was 0.
As to APRITFGGPSDSTGSN R3Y (APYITFGGPSDSTGSN), the “DMS PSSM value, R (position 3)” value was 0.03984.
“APRITFGGPSDSTGSN G14Y (APRITFGGPSDSTYSN)”: the “DMS PSSM value, G (position 14)” value amounted to 0.003136.
APRITFGGPSDSTGSN A1E (EPRITFGGPSDSTGSN): the “DMS PSSM value, A (position 1)” value came to 0.1097.
Take APRITFGGPSDSTGSN F6I (APRITIGGPSDSTGSN): the “DMS PSSM value, F (position 6)” value came out at 0.
Turning to “APRITFGGPSDSTGSN D11M (APRITFGGPSMSTGSN)”, the “DMS PSSM value, D (position 11)” value amounted to 0.4258.
As to APRITFGGPSDSTGSN P2N (ANRITFGGPSDSTGSN), the “DMS PSSM value, P (position 2)” value is 0.
“APRITFGGPSDSTGSN D11K (APRITFGGPSKSTGSN)”: the “DMS PSSM value, D (position 11)” value is 0.
Consider APRITFGGPSDSTGSN P2M (AMRITFGGPSDSTGSN), for which the “DMS PSSM value, P (position 2)” value was determined as 0.
Consider APRITFGGPSDSTGSN I4M (APRMTFGGPSDSTGSN), for which the “DMS PSSM value, I (position 4)” value was 0.
As to “APRITFGGPSDSTGSN T13W (APRITFGGPSDSWGSN)”, the “DMS PSSM value, T (position 13)” value is on record as 0.
With APRITFGGPSDSTGSN P9S (APRITFGGSSDSTGSN), the “DMS PSSM value, P (position 9)” value stood at 0.003052.
As for APRITFGGPSDSTGSN G8Y (APRITFGYPSDSTGSN), the “DMS PSSM value, G (position 8)” value is reported as 0.02437.
Turning to “APRITFGGPSDSTGSN G14I (APRITFGGPSDSTISN)”, the “DMS PSSM value, G (position 14)” value is reported as 0.0004999.
Consider APRITFGGPSDSTGSN P9N (APRITFGGNSDSTGSN), for which the “DMS PSSM value, P (position 9)” value is on record as 0.
On to APRITFGGPSDSTGSN A1V (VPRITFGGPSDSTGSN), for which the “DMS PSSM value, A (position 1)” value stood at 0.004383.
As for APRITFGGPSDSTGSN G8I (APRITFGIPSDSTGSN), the “DMS PSSM value, G (position 8)” value is on record as 0.
In the case of APRITFGGPSDSTGSN P2K (AKRITFGGPSDSTGSN), the “DMS PSSM value, P (position 2)” value came out at 0.
For “APRITFGGPSDSTGSN S12N (APRITFGGPSDNTGSN)”, the “DMS PSSM value, S (position 12)” value was 0.001178.
For the sequence APRITFGGPSDSTGSN P2G (AGRITFGGPSDSTGSN), the “DMS PSSM value, P (position 2)” value amounted to 0.
For “APRITFGGPSDSTGSN D11T (APRITFGGPSTSTGSN)”, the “DMS PSSM value, D (position 11)” value was determined as 0.104.
As for APRITFGGPSDSTGSN P2F (AFRITFGGPSDSTGSN), the “DMS PSSM value, P (position 2)” value was found to be 0.0008942.
Consider “APRITFGGPSDSTGSN T13E (APRITFGGPSDSEGSN)”, for which the “DMS PSSM value, T (position 13)” value is 0.0383.
The same measure, in the same setting: in the case of “APRITFGGPSDSTGSN T13G (APRITFGGPSDSGGSN)” it was 0.00113.
In the case of “APRITFGGPSDSTGSN D11S (APRITFGGPSSSTGSN)”, the “DMS PSSM value, D (position 11)” value is given as 0.01892.
In the case of APRITFGGPSDSTGSN A1K (KPRITFGGPSDSTGSN), the “DMS PSSM value, A (position 1)” value was 0.
On the same count and under the same terms, for APRITFGGPSDSTGSN A1Y (YPRITFGGPSDSTGSN) the value was 0.04618.
“APRITFGGPSDSTGSN S15I (APRITFGGPSDSTGIN)”: the “DMS PSSM value, S (position 15)” value was found to be 0.3514.
In the case of APRITFGGPSDSTGSN P9G (APRITFGGGSDSTGSN), the “DMS PSSM value, P (position 9)” value came out at 0.003052.
As to APRITFGGPSDSTGSN T5S (APRISFGGPSDSTGSN), the “DMS PSSM value, T (position 5)” value is on record as 0.002921.
Turning to APRITFGGPSDSTGSN G8F (APRITFGFPSDSTGSN), the “DMS PSSM value, G (position 8)” value amounted to 0.
Consider APRITFGGPSDSTGSN F6A (APRITAGGPSDSTGSN), for which the “DMS PSSM value, F (position 6)” value came to 0.
With APRITFGGPSDSTGSN P2I (AIRITFGGPSDSTGSN), the “DMS PSSM value, P (position 2)” value worked out at 0.
As to APRITFGGPSDSTGSN T5H (APRIHFGGPSDSTGSN), the “DMS PSSM value, T (position 5)” value stood at 0.
In the case of “APRITFGGPSDSTGSN D11N (APRITFGGPSNSTGSN)”, the “DMS PSSM value, D (position 11)” value amounted to 0.02182.
Consider APRITFGGPSDSTGSN G7D (APRITFDGPSDSTGSN), for which the “DMS PSSM value, G (position 7)” value worked out at 0.
Consider APRITFGGPSDSTGSN F6V (APRITVGGPSDSTGSN), for which the “DMS PSSM value, F (position 6)” value stood at 0.
As to APRITFGGPSDSTGSN T5E (APRIEFGGPSDSTGSN), the “DMS PSSM value, T (position 5)” value is recorded as 0.4512.
Take “APRITFGGPSDSTGSN G14W (APRITFGGPSDSTWSN)”: the “DMS PSSM value, G (position 14)” value came to 0.2634.
For “APRITFGGPSDSTGSN S12W (APRITFGGPSDWTGSN)”, the “DMS PSSM value, S (position 12)” value is 0.01354.
For the sequence “APRITFGGPSDSTGSN S10M (APRITFGGPMDSTGSN)”, the “DMS PSSM value, S (position 10)” value is 0.2077.
Same read-out and setting: in the case of “APRITFGGPSDSTGSN S10K (APRITFGGPKDSTGSN)” it was 0.006118.
For “APRITFGGPSDSTGSN S15A (APRITFGGPSDSTGAN)”, the “DMS PSSM value, S (position 15)” value came to 0.001992.
